Common to all, as to format: toxicity, cell-based
The test system of series [1] is Fibroblast. The experiment in a line: Incucyte cell viability with human fibroblast. As to conditions: 10 µM, compound concentration 10 uM.
Series [2] relates to U2OS. The experiment in a line: Incucyte cell viability with U2OS. As to conditions: human, 10 µM, compound concentration 10 uM.
Series [3] concerns HEK-293T. As to the kind of experiment: Incucyte cell viability with HEK293T. The settings on record: human, 10 µM, compound concentration 10 uM.
Also: unitless GR value; below 1 slowed growth and below 0 cell loss.

For `CN1CC(=O)N(C)c2cnc(Nc3ccc(NC(=O)Nc4cccc(C(=O)O)c4)cc3)nc21`, the “Growth Rate” value in series [1] (0 h, replicate number 1) was -1; in series [1] (0 h, replicate number 2), -0.25; in series [1] (12 h, replicate number 2), 0.81; in series [1] (18 h, replicate number 2) it was 0.99; in series [2] (0 h, replicate number 1), -0.94; in series [2] (0 h, replicate number 2) it was 0.52. In addition, the “Growth Rate” value is recorded as 0.82 in series [2] (6 h, replicate number 1); 0.73 in series [2] (6 h, replicate number 2); 0.91 in series [2] (12 h, replicate number 1); 0.75 in series [2] (12 h, replicate number 2); 0.89 in series [2] (18 h, replicate number 1); 0.97 in series [2] (18 h, replicate number 2). The “Growth Rate” value in series [2] (24 h, replicate number 1) is given as 0.95; in series [2] (24 h, replicate number 2) it was 1; in series [3] (0 h, replicate number 1), -1; in series [3] (18 h, replicate number 1), 0.83; in series [3] (24 h, replicate number 1), 0.72.

As for `CCOC(=O)c1ccc(CN(Cc2ccc(-c3cccc(S(C)(=O)=O)c3)cc2)S(=O)(=O)c2c(C)cc(C)cc2C)o1`, the “Growth Rate” value in series [1] (0 h, replicate number 1) is reported as 0.32; in series [1] (6 h, replicate number 2) it was 0.38; in series [1] (12 h, replicate number 1), 0.59; in series [1] (12 h, replicate number 2), 0.87; in series [1] (18 h, replicate number 1) it was 0.86; in series [1] (18 h, replicate number 2) it was 0.84. Further, the “Growth Rate” value in series [1] (24 h, replicate number 1) is listed as 0.99; in series [1] (24 h, replicate number 2) it was 0.87; in series [2] (24 h, replicate number 2) it was 0.89; in series [3] (0 h, replicate number 1) it was -0.26; in series [3] (12 h, replicate number 2), 0.98.

Regarding `O=C(Nc1cccc(C(F)(F)F)c1)c1cc(Cl)ccc1O`, the “Growth Rate” value in series [1] (6 h, replicate number 1) was -0.98; in series [1] (6 h, replicate number 2) it was -0.88; in series [1] (12 h, replicate number 2) it was -0.65; in series [1] (18 h, replicate number 1), 0.8; in series [1] (18 h, replicate number 2) it was -0.55; in series [1] (24 h, replicate number 1), 0.08. Also, the “Growth Rate” value in series [1] (24 h, replicate number 2) was -0.46; in series [2] (0 h, replicate number 1) it was -0.07; in series [2] (6 h, replicate number 1) it was 0.96; in series [2] (6 h, replicate number 2), 0.71; in series [2] (12 h, replicate number 1), 0.63; in series [2] (12 h, replicate number 2), 0.59. In addition, the “Growth Rate” value in series [2] (18 h, replicate number 1) is on record as 0.4; in series [2] (18 h, replicate number 2) it was 0.41; in series [2] (24 h, replicate number 1) it was 0.28; in series [2] (24 h, replicate number 2) it was 0.27; in series [3] (6 h, replicate number 1) it was -0.8; in series [3] (6 h, replicate number 2) it was -0.84. For the same compound, the “Growth Rate” value in series [3] (12 h, replicate number 1) is reported as -0.85; in series [3] (12 h, replicate number 2) it was -0.56; in series [3] (18 h, replicate number 1), -0.77; in series [3] (18 h, replicate number 2), -0.41; in series [3] (24 h, replicate number 1) it was -0.67; in series [3] (24 h, replicate number 2), -0.3.

For `O=C(O)C[C@H]1CC[C@H](c2ccc(NC(=O)c3nnc(Nc4ccc(F)c(F)c4)o3)cc2)CC1`, the “Growth Rate” value in series [1] (6 h, replicate number 2) came to 0.97; in series [1] (24 h, replicate number 2), 0.99; in series [2] (6 h, replicate number 2), 0.7; in series [2] (12 h, replicate number 2), 0.72; in series [2] (18 h, replicate number 2), 0.93; in series [2] (24 h, replicate number 2) it was 0.96. Also, the “Growth Rate” value is listed as 0.29 in series [3] (0 h, replicate number 1); -0.23 in series [3] (0 h, replicate number 2); 0.74 in series [3] (6 h, replicate number 1); 0.69 in series [3] (12 h, replicate number 1); 0.76 in series [3] (18 h, replicate number 1); 0.86 in series [3] (24 h, replicate number 1).

For the compound `C1=Cc2ccccc2C(=C2CCN(CCCCc3nn[nH]n3)CC2)c2ccccc21`, the “Growth Rate” value in series [1] (0 h, replicate number 2) is -0.99; in series [2] (6 h, replicate number 1) it was 0.4; in series [2] (24 h, replicate number 1), 0.89; in series [3] (0 h, replicate number 1), 0.42; in series [3] (6 h, replicate number 1), 0.94; in series [3] (6 h, replicate number 2), 0.78. The “Growth Rate” value in series [3] (12 h, replicate number 2) is recorded as 0.94; in series [3] (18 h, replicate number 1), 0.91.

Consider `Cc1ccc2c(N)c(C(=O)NC3CCc4cc(N5CC6CCC(C5)N6)ccc4C3)sc2n1.O=CO` (stereo not given), for which the “Growth Rate” value is listed as 0.09 in series [1] (6 h, replicate number 1); -0.1 in series [1] (6 h, replicate number 2); 0.09 in series [1] (12 h, replicate number 1); -0.17 in series [1] (12 h, replicate number 2); 0.05 in series [1] (18 h, replicate number 1); -0.26 in series [1] (18 h, replicate number 2). For the same compound, the “Growth Rate” value in series [1] (24 h, replicate number 1) was 0.01; in series [1] (24 h, replicate number 2) it was -0.21; in series [2] (0 h, replicate number 2) it was 0.59; in series [2] (6 h, replicate number 2), 0.37; in series [2] (12 h, replicate number 1), 0.47; in series [2] (12 h, replicate number 2), 0.12. The “Growth Rate” value is 0.35 in series [2] (18 h, replicate number 1); 0.15 in series [2] (18 h, replicate number 2); 0.24 in series [2] (24 h, replicate number 1); 0.08 in series [2] (24 h, replicate number 2); -0.55 in series [3] (6 h, replicate number 1); -0.64 in series [3] (6 h, replicate number 2). Moreover, the “Growth Rate” value in series [3] (12 h, replicate number 1) is -0.47; in series [3] (12 h, replicate number 2) it was -0.55; in series [3] (18 h, replicate number 1), -0.39; in series [3] (18 h, replicate number 2), -0.46; in series [3] (24 h, replicate number 1), -0.32; in series [3] (24 h, replicate number 2), -0.37.

For `Cc1ncc(C(=O)Nc2cc(C(C)(C)C)on2)cc1-n1cc(-c2cnn(C)c2C)nn1.Cl`, the “Growth Rate” value in series [1] (0 h, replicate number 1) stood at 0.92; in series [1] (0 h, replicate number 2) it was 0.23; in series [1] (6 h, replicate number 1), 0.69; in series [1] (6 h, replicate number 2), 0.14; in series [1] (12 h, replicate number 1), 0.95; in series [1] (12 h, replicate number 2), 0.79. In addition, the “Growth Rate” value is 0.95 in series [1] (24 h, replicate number 2); 0.8 in series [2] (6 h, replicate number 1); 0.94 in series [2] (6 h, replicate number 2); 0.92 in series [2] (18 h, replicate number 2); 0.58 in series [2] (24 h, replicate number 2); -0.6 in series [3] (0 h, replicate number 1). The “Growth Rate” value in series [3] (6 h, replicate number 1) was determined as 0.99; in series [3] (6 h, replicate number 2) it was 0.65.

Regarding `CCOP(=O)(OCC)C(=Cc1cc(C(C)(C)C)c(O)c(C(C)(C)C)c1)P(=O)(OCC)OCC`, the “Growth Rate” value in series [1] (0 h, replicate number 2) stood at 0.24; in series [1] (6 h, replicate number 1), 0.57; in series [1] (6 h, replicate number 2), 0.08; in series [1] (12 h, replicate number 1) it was 0.78; in series [1] (18 h, replicate number 1) it was 0.39; in series [1] (18 h, replicate number 2), 0.7. The “Growth Rate” value in series [1] (24 h, replicate number 1) came to 0.61; in series [2] (0 h, replicate number 2), 0.17; in series [2] (6 h, replicate number 2) it was 0.36; in series [2] (12 h, replicate number 2) it was 0.63; in series [2] (18 h, replicate number 2), 0.75; in series [2] (24 h, replicate number 2) it was 0.77. The “Growth Rate” value is given as 0.16 in series [3] (0 h, replicate number 1); -0.99 in series [3] (0 h, replicate number 2); 0.25 in series [3] (6 h, replicate number 2); 0.55 in series [3] (12 h, replicate number 2); 0.94 in series [3] (18 h, replicate number 1); 0.79 in series [3] (18 h, replicate number 2). Further, the “Growth Rate” value in series [3] (24 h, replicate number 2) amounted to 0.95.

As for `COc1cc(-c2nn([C@H]3CC[C@H](N4CCN(C(C)=O)CC4)CC3)c3ncnc(N)c23)ccc1NC(=O)c1cc2ccccc2n1C`, the “Growth Rate” value in series [1] (0 h, replicate number 1) is given as -1; in series [1] (6 h, replicate number 1), -0.52; in series [1] (6 h, replicate number 2), -0.77; in series [1] (12 h, replicate number 1), -0.69; in series [1] (12 h, replicate number 2), 0.45; in series [1] (18 h, replicate number 1), -0.56. The “Growth Rate” value in series [1] (24 h, replicate number 1) was -0.45; in series [2] (0 h, replicate number 1) it was -0.86; in series [2] (0 h, replicate number 2), 0.2; in series [2] (6 h, replicate number 1), 0.32; in series [2] (6 h, replicate number 2) it was 0.56; in series [2] (12 h, replicate number 1), 0.44. For the same compound, the “Growth Rate” value is 0.61 in series [2] (12 h, replicate number 2); 0.44 in series [2] (18 h, replicate number 1); 0.95 in series [2] (18 h, replicate number 2); 0.44 in series [2] (24 h, replicate number 1); 0.91 in series [2] (24 h, replicate number 2); -0.95 in series [3] (6 h, replicate number 1). The “Growth Rate” value in series [3] (6 h, replicate number 2) is recorded as -0.96; in series [3] (12 h, replicate number 1), -0.39; in series [3] (12 h, replicate number 2), -0.18; in series [3] (18 h, replicate number 1), 0.38; in series [3] (18 h, replicate number 2), 0.59; in series [3] (24 h, replicate number 1) it was 0.69. The “Growth Rate” value in series [3] (24 h, replicate number 2) stood at 0.89.

With `CSc1ccc(C(=O)/C=C/c2cc(C)c(OC(C)(C)C(=O)O)c(C)c2)cc1` [ELAFIBRANOR], the “Growth Rate” value in series [1] (0 h, replicate number 1) amounted to 0.61; in series [1] (0 h, replicate number 2), 0.85; in series [1] (6 h, replicate number 2), 0.74; in series [1] (12 h, replicate number 2), 0.59; in series [1] (18 h, replicate number 1), 0.87; in series [1] (18 h, replicate number 2), 0.9. Moreover, the “Growth Rate” value in series [1] (24 h, replicate number 2) was 0.75; in series [2] (0 h, replicate number 1), -0.15; in series [2] (0 h, replicate number 2) it was 0.75; in series [2] (6 h, replicate number 1), 0.88; in series [2] (6 h, replicate number 2), 0.45; in series [2] (12 h, replicate number 1), 0.63. The “Growth Rate” value in series [2] (12 h, replicate number 2) is listed as 0.69; in series [2] (18 h, replicate number 1) it was 0.88; in series [2] (24 h, replicate number 1), 0.92; in series [2] (24 h, replicate number 2), 0.76; in series [3] (0 h, replicate number 1) it was 0.18; in series [3] (6 h, replicate number 2), 0.6. Besides, the “Growth Rate” value in series [3] (12 h, replicate number 2) was 0.79; in series [3] (18 h, replicate number 2), 0.97; in series [3] (24 h, replicate number 2), 0.99.

For the origin of these results see ChEMBL document CHEMBL5303304, “EUbOPEN Chemogenomics Library - IncuCyte” (2023).
